This is an account of results in patent EP4755886A1 (Chengdu Chipscreen Pharmaceutical Ltd., priority 2023, dated 2025).

Series [1] is described as follows: Human liver microsome stability. The class given is in vitro ADME. The following applies: pH 7.4; human liver microsomes 0.5 mg/mL, compound 1 µM, NADPH 1 mM, 37 °C. How it is done: Experimental materials: human liver microsomes (purchased from BIOIVT);
PBS: 0.1 M KH2PO4 and K2HPO4 buffers, pH 7.4.
MgCl2: a certain amount of MgCl2 was weighed out and prepared into a 16 mM MgCl2 solution with PBS.
NADPH (Chinese name: reduced nicotinamide adenine dinucleotide phosphate, purchased from Sigma, Cat. No.: 481973-500 mg): a certain amount of NADPH was weighed out and a 4 mM solution of NADPH was prepared with a 16 mM MgCl2 solution, and the final incubation concentration was 1 mM.
Compounds: 4 µM solutions of the test compounds and positive compounds were prepared with PBS, and the final incubation concentration was 1 µM.
Liver microsomes (purchased from BIOIVT, Cat. No.: X008070): the liver microsomes were diluted to […] with PBS, and the final incubation concentration was 0.5 mg/mL.
The prepared test compound or positive compound was added to a test tube, and then the prepared NADPH was added. The mixture was mixed well. The mixture was pre-incubated in a thermostat incubator at 220 rpm at 37 °C for 5 min, and the prepared liver microsomes were added to start the reaction. All steps were performed in replicate wells. At 0 min, 15 min, 30 min, 45 min, and 60 min, a certain volume of glacial acetonitrile solution containing an internal standard was added to the corresponding tube to precipitate the protein. The mixture was vortexed for 5 min with shaking, and then centrifuged at 4000 rpm for 10 min. […] The samples were analyzed by LC-MS/MS.
The concentrations (peak area ratios) of the example compounds were determined by LC-MS/MS. Rate constants were obtained by plotting "Ln (residual amount of compound %)" versus "incubation time" in Excel, thereby calculating the half-lives and intrinsic clearances of the drugs and providing a basis for the prediction of the in-vivo clearance.
[formula] CLH = CLint × fu × Qh /(CLint×fu+Qh) [formula]
Stability in human liver microsomes
Background: Liver microsomes are a subcellular fraction often used to study metabolism.

A further series is described as follows: PK experiment in mice. The settings on record: female, BALB/c, mouse, plasma, po, 10 mg/kg.
For another series, the system named is MTAP^-/- HCT-116 cells. Kind of series: Cell proliferation (MTS), MTAP-/- HCT-116. The class given is cell-based, human. The settings on record: for Selectivity: HCT116 WT IC50 relative to HCT116 MTAP-/- IC50; for IC50: Homo sapiens, 240 h, MTAP-/- HCT-116, 10 days with compound, MTS reading, read-out: IC50 HCT116 MTAP-/-. An outline of the steps: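 MTAP-/- (CRISPR/Cas9 biallelic knockout) or wild-type HCT-116 cells seeded at 100 cells/well, treated next day with 8-point 3-fold dilutions (top 20 µM) for 10 days at 37 °C, 5% CO2. Viability read by MTS; IC50 from four-parameter logistic fit of inhibition rate vs log concentration.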

Another series deals with wild-type HCT-116 cells. Kind of series: Cell proliferation (MTS), wild-type HCT-116. The class given is cell-based. The settings on record: Homo sapiens, 240 h; wild-type HCT-116, 10 days with compound, MTS reading; read-out: IC50 HCT116 WT. The method in brief:
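Wild-type HCT-116 cells were seeded at 100 cells/well in McCoy's 5A/10% FBS. From day 1 they were treated with compound in 3-fold dilutions (initial 20 µM, 8 points) for 10 days at 37° C. Proliferation was read by MTS on day 11, and IC50 was obtained from a four-parameter logistic fit.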

The next series concerns the target T1, hERG (Homo sapiens, UniProt Q12809).
T1 construct: purchased ThermoFisher Scientific PV5365
The series can be described thus: hERG test (Predictor hERG Fluorescence Polarization Assay Kit). The format is binding. The settings on record: for inhibition at 3.5 h, 10 µM: human, probe Predictor hERG Tracer Red, 10 µM test substance, three duplicate wells; for IC50: only 10 µM tested. How it is done: Predictor™ hERG Fluorescence Polarization Assay Kit (ThermoFisher Scientific, PV5365).
The procedures in the kit instructions were followed: 4× Predictor™ hERG Tracer Red, 4× E-4031, and 4× test substance solutions (final assay concentration: 10 µM) were prepared in advance. 5 µL Predictor™ hERG FP Assay Buffer and 5 µL Predictor™ hERG Membrane were added sequentially to the Assay Blank group in a 384-well plate. 2.5 µL Predictor™ hERG FP Assay Buffer, 2.5 µL of 4× E-4031, and 2.5 µL of 4× test substance were added to the negative control group, the positive control group, and the test substance group, respectively, and then 5 µL Predictor™ hERG Membrane and 2.5 µL of 4× Predictor™ hERG Tracer Red were sequentially added. The total volume of the experimental system was 10 µL, and three duplicate wells were set for each group. After loading, the plate was gently tapped to mix well and incubated at room temperature (25 °C) in the dark for 3.5 h. After the incubation was completed, the fluorescence polarization value mP was measured on a microplate reader, and G Factor was 2.14.
The inhibition rate of the test substance was calculated using the following formula: [formula]

The next series in a line: PK experiment in rats. The class given is in vivo. The following applies: rat; SD male rats, PO 10 mg/kg, vehicle 0.5% MC/0.2% Tween 80, plasma. How it is done:
The samples were analyzed by LC-MS/MS. […] Table 6. Pharmacokinetic parameters for rats

For orientation: half-life means how long it takes for the measured level to halve. Broadly, the AUC(0-t) is exposure summed from dosing to a finite time, without extrapolation to infinity. Low readings indicate low exposure, high ones high exposure. By Cmax is commonly meant the highest concentration seen after dosing. What is called inhibition is the relative decrease from the control value, in per cent.

T1 sequence (Q12809 whole entry): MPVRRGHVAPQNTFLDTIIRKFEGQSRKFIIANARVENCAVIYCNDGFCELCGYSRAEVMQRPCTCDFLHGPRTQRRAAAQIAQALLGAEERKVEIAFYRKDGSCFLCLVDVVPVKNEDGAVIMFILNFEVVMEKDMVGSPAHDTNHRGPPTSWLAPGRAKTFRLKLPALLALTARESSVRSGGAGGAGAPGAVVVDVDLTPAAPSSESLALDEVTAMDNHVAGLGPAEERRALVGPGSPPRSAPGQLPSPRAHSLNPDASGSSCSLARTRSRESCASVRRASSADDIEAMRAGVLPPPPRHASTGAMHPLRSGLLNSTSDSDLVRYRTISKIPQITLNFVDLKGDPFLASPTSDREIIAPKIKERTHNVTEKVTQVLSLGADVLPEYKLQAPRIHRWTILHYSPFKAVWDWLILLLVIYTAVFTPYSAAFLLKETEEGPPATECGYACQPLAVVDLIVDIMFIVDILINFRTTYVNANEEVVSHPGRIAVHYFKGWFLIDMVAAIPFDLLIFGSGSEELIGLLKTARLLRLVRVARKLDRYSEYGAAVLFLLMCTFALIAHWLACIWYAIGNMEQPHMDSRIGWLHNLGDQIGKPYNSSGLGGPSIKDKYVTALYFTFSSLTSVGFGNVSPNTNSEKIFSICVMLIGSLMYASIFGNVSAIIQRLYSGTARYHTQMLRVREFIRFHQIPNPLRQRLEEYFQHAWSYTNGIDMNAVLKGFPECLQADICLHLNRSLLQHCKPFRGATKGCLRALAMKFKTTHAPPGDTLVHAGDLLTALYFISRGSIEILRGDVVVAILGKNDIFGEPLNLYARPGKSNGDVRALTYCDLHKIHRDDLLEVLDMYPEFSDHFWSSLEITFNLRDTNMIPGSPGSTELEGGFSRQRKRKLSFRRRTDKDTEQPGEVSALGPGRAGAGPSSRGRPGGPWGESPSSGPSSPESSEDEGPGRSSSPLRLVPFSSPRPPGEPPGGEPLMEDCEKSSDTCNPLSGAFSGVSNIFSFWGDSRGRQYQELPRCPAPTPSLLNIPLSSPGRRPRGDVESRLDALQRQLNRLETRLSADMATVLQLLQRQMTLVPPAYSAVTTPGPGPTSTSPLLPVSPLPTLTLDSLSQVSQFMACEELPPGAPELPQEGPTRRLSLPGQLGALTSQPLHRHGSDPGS

`CN(C(=O)c1ccc2nc(N)c3cnn(C)c3c2c1)C1COc2cc(C#Cc3cnn(C4CC4)c3)ccc21` (stereo not shown) [Compound 4, 4-amino-N-(6-((1-cyclopropyl-1H-pyrazol-4-yl)ethynyl)-2,3-dihydrobenzofuran-3-yl)-N,1-dimethyl-1H-pyrazolo[4,3-c]quinoline-8-carboxamide] returned a half-life at 1 µM in series [1] of 169 min. In “PK experiment in mice”, the AUC(0-t) is 9150 ± 2240 ng·h/mL and the peak level (Cmax) was 634 ± 71 ng/mL. Further, in the series on MTAP^-/- HCT-116 cells, the Selectivity is 165 and the IC50 was determined as 8 nM. Also, in the series with wild-type HCT-116 cells, the IC50 is 1320 nM.
The molecule `C#Cc1ccc2c(c1)OCC2N(C)C(=O)c1cc2c(cc1F)nc(N)c1cnn(C)c12` (stereo not shown) [Reference Example 1, reference compound] registered a half-life at 1 µM in series [1] of 16.6 min.
In the series “PK experiment in mice”, `CN(C(=O)c1cc2c(cc1F)nc(N)c1cnn(C)c12)[C@@H]1COc2cc(C#Cc3cnn(C4CC4)c3)ccc21` [Compound 12A, (S)-4-amino-N-(6-((1-cyclopropyl-1H-pyrazol-4-yl)ethynyl)-2,3-dihydrobenzofuran-3-yl)-7-fluoro-N,1-dimethyl-1H-pyrazolo[4,3-c]quinoline-8-carboxamide] yielded an AUC(0-t) of 26900 ± 7450 ng·h/mL and a Cmax of 2670 ± 421 ng/mL. Further, in the series with MTAP^-/- HCT-116 cells, the Selectivity was found to be 115 and the IC50 amounted to 3.7 nM. Further, in the series on wild-type HCT-116 cells, the IC50 amounted to 426 nM. Moreover, at hERG, the inhibition at 3.5 h, 10 µM is 22.4% and the IC50 is above 10000 nM.
In the series “PK experiment in mice”, `CN(C(=O)c1cc2c3c(c(N)nc2cc1F)COC3)C1COc2cc(C#Cc3cnn(C)c3)ccc21` (stereo not shown) [Compound 39, 4-amino-7-fluoro-N-methyl-N-(6-((1-methyl-1H-pyrazol-4-yl)ethynyl)-2,3-dihydrobenzofuran-3-yl)-1,3-dihydrofuro[3,4-c]quinoline-8-carboxamide] yielded an AUC(0-t) of 20900 ± 8400 ng·h/mL and a Cmax of 2670 ± 180 ng/mL. Besides, in the series with MTAP^-/- HCT-116 cells, the Selectivity worked out at 148 and the IC50 is 20 nM. Besides, the IC50 in the series on wild-type HCT-116 cells is 2960 nM. In addition, at hERG, the inhibition at 3.5 h, 10 µM is 23.8% and the IC50 was above 10000 nM.
In “PK experiment in mice”, `CN(C(=O)c1cc2c3c(c(N)nc2cc1F)COC3)[C@@H]1COc2cc(C#Cc3cnn(C4CC4)c3)ccc21` [Compound 16A, (S)-4-amino-N-(6-((1-cyclopropyl-1H-pyrazol-4-yl)ethynyl)-2,3-dihydrobenzofuran-3-yl)-7-fluoro-N-methyl-1,3-dihydrofuro[3,4-c]quinoline-8-carboxamide] came in with an AUC(0-t) of 23300 ± 5520 ng·h/mL and a Cmax of 1600 ± 352 ng/mL. Moreover, in the series with MTAP^-/- HCT-116 cells, the Selectivity is reported as 84 and the IC50 came to 13.9 nM. Further, the IC50 in the series with wild-type HCT-116 cells worked out at 1160 nM. Moreover, in “PK experiment in rats”, the AUC(0-t) came out at 13700 ± 2780 ng·h/mL and the Cmax was determined as 1280 ± 270 ng/mL.
In the series “PK experiment in mice”, `CN(C(=O)c1cc2c(cc1F)nc(N)c1cnn(C)c12)[C@@H]1COc2cc(C#Cc3cnc4n3CCCC4)ccc21` [Compound 66A, (S)-4-amino-7-fluoro-N,1-dimethyl-N-(6-((5,6,7,8-tetrahydroimidazo[1,2-a]pyridin-3-yl)ethynyl)-2,3-dihydrobenzofuran-3-yl)-1H-pyrazolo[4,3-c]quinoline-8-carb oxamide] showed an AUC(0-t) of 23200 ± 3390 ng·h/mL and a Cmax of 3830 ± 533 ng/mL. Besides, in the series on MTAP^-/- HCT-116 cells, the Selectivity is on record as 150 and the IC50 came out at 2 nM. In addition, the IC50 with wild-type HCT-116 cells amounted to 299 nM. In addition, on hERG, the inhibition at 3.5 h, 10 µM was 14.2 ± 14% and the IC50 was above 10000 nM.
In turn, `CN(C(=O)c1cc2c3c(c(N)nc2cc1Cl)COC3)[C@@H]1COc2cc(C#Cc3cnn4c3CCCC4)ccc21` [Compound 91A, (S)-4-amino-7-chloro-N-methyl-N-(6-((4,5,6,7-tetrahydropyrazolo[1,5-a]pyridin-3-yl)ethynyl)-2,3-dihydrobenzofuran-3-yl)-1,3-dihydrofuro[3,4-c]quinoline-8-car boxamide] came in with a half-life at 1 µM in series [1] of 47.2 min. Further, in the series on MTAP^-/- HCT-116 cells, the Selectivity is 195 and the IC50 was 7.1 nM. Further, the IC50 in the series on wild-type HCT-116 cells was found to be 1390 nM.
`C#Cc1ccc2c(c1)OC[C@H]2N(C)C(=O)c1cc2c3c(c(N)nc2cc1Cl)COC3` [Reference Example 5, reference compound]: the half-life at 1 µM in series [1] worked out at 25.6 min. The results for the AUC(0-t) in the series “PK experiment in mice” and in the series “PK experiment in rats” were 9080 ± 2790 ng·h/mL and 2940 ± 438 ng·h/mL, respectively. The values for the Cmax in “PK experiment in mice” and in “PK experiment in rats” were 1400 ± 165 ng/mL and 549 ± 139 ng/mL, respectively.
For `C#Cc1ccc2c(c1)OCC2N(C)C(=O)c1ccc2nc(N)c3cnn(C)c3c2c1` (stereo not shown) [Reference Example 2], in series [1], the half-life at 1 µM amounted to 33.6 min. In the series “PK experiment in rats”, this molecule showed an AUC(0-t) of 784 ± 595 ng·h/mL and a Cmax of 131 ± 17 ng/mL.
`Nc1nc2cnc(C(=O)N3CCOC[C@@H]3c3ccc(C(F)(F)F)cc3)cc2c2c1COC2` [Reference Example 7, reference compound] registered a half-life at 1 µM in series [1] of 28.9 min. Moreover, the area under the curve AUC(0-t) was determined as 12600 ± 1920 ng·h/mL in “PK experiment in mice” and 853 ± 79 ng·h/mL in “PK experiment in rats”. Further, the Cmax in the series “PK experiment in mice” is 1920 ± 76 ng/mL; in the series “PK experiment in rats”, 477 ± 110 ng/mL. The Selectivity in the series on MTAP^-/- HCT-116 cells is on record as 21. In addition, the IC50 in the series on MTAP^-/- HCT-116 cells amounted to 97.4 nM; in the series on wild-type HCT-116 cells, 2010 nM.
